# Where two headings read alike, the source gives them in different places.
# What was measured:
# Hex A = Hex A (Homo sapiens, UniProt P06865+P07686); assay: Hex A inhibition (IC50 from dose response curves of Hex A residual activity); settings: for pKHA: pH dependence of Hex A inhibition;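 on all read-outs here: remaining Hex A enzyme activity recorded across rising inhibitor doses, with dose response curves run at pH 6.5 and again at pH 4.5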
# Method: The NINDS library was screened for compounds having Hex A inhibitory activity.
# (§1) Experiments were performed using 1.6 mM 4-methylumbelliferone-b-N-Acetylglucosamine substrate.
# mutant Hex A [1] = target: mutant Hex A (Homo sapiens, UniProt P06865+P07686); assay type: cell-based; settings: for Max Increase: maximum increase in Hex A activity relative to untreated cells (=1); for Range of Increase: range of increase in Hex A activity; for EC50: Hex A rescue, determined from graphs of FIGS. 5-7
# Method: Using the graphs of FIGS. 5-7, the EC50 values for Hex A rescue were determined as well as the maximum increase and range of increase in Hex A activity. These values are tabulated in Table 2, together with the IC50 values for Hex A inhibition that were determined in Example 3.
# patient fibroblasts = assay: Cell viability by Alamar Blue; assay type: cell-based, human; settings: concentrations greater than 100 μM, five days of treatment
# mutant Hex A [2] = assay type: cell-based, human
# Method: The cells were harvested and assayed for Hex A using a fluorescent artificial substrate, MUGS. The increase in Hex A activity relative to that of untreated cells is given, i.e. no change in activity=1;
# Cells were grown in the indicated concentrations of either drug for five days. The cells were harvested and assayed for Hex A activity using a fluorescent artificial substrate, MUGS. The increase in Hex A activity relative to that of untreated cells is given, i.e. no change in activity=1.
# Two of the other cultures were un-genotyped infantile Tay-Sachs disease fibroblast cell lines. […] The increase in Hex A activity relative to that of untreated cells is given, i.e., no change in activity=1. The decrease in Hex A activity at high concentrations represents cell toxicity.
# HexA wt = target: T1, HexA wt (Homo sapiens, UniProt P06865+P07686); assay: Inhibition of HexA enriched from normal fibroblasts; assay type: biochemical; settings: pH 4.5
# T1 construct: endogenous in cells; host or cells: normal fibroblasts (HexA isozyme enriched from them)
# T1 sequence (P06865 89-529): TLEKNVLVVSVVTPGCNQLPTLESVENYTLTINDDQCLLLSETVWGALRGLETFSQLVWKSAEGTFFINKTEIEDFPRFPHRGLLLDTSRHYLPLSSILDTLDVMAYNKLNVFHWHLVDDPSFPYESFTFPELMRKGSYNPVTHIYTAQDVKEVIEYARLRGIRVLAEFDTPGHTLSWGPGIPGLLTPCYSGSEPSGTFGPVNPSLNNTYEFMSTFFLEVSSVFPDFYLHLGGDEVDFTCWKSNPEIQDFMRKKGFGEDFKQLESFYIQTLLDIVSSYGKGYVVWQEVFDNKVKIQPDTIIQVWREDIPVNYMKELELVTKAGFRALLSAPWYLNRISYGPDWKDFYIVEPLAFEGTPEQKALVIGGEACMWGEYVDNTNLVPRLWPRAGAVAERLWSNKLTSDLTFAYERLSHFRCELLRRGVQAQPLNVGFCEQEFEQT
# T1 sequence (P07686 122-311 limits assumed): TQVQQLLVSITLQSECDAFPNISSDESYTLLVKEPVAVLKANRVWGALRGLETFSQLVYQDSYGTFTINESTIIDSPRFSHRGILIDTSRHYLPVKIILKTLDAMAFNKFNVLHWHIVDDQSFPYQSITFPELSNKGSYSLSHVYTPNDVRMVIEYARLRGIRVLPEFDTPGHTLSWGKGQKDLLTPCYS
# T1 sequence (P07686 315-556 limits assumed): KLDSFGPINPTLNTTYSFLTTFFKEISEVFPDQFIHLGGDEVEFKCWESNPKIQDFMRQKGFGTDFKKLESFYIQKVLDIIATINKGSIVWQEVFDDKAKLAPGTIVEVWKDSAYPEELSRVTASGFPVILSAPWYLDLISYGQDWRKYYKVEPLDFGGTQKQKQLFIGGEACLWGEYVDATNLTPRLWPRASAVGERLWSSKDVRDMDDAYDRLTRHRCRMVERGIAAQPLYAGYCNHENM
# Method: as §1
# lysosomal HexA = assay: Intracellular hydrolysis of fluorescent GM2 ganglioside derivative in patient cells; assay type: cell-based, human; settings: PYRdCl 11 μg/ml vs PYR 33 μg/ml, 10 days
# Method: Prior to evaluation of the GM2 hydrolytic activity of lysosomal HexA, cells were treated with Conduritol b-epoxide (Glucocerebrosidase inhibitor) to limit hydrolysis beyond (GlcCer) loaded with a fluorescent derivative of GM2 ganglioside for 8 hrs. Neutral glycolipids and gangliosides were separated by Folch extraction of the treated cells. Gangliosides and glycolipids were resolved by High Performance Thin Layer Chromatography and visualized by Fluorescence Imaging (Storm Imager, Molecular Devices).
# [3] = target: T2, purified recombinant human DHFR (Homo sapiens, UniProt P00374); assay: DHFR inhibition; assay type: biochemical; settings: FIG. 13B
# T2 sequence (P00374 1-187): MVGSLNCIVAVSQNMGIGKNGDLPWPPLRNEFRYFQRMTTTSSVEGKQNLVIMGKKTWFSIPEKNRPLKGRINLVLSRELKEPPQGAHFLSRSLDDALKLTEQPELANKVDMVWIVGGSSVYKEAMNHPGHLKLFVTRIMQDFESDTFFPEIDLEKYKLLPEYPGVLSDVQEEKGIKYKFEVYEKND
# malaria = settings: cited from earlier work
# HexB = HexB (Homo sapiens, UniProt P07686); assay: HexB inhibition (purified isozyme); assay type: biochemical
# Chain of HexB (P07686 122-311 limits assumed): as the sequence (P07686 122-311 limits assumed) above
# Chain of HexB (P07686 315-556 limits assumed): as the sequence (P07686 315-556 limits assumed) above
# Method: as §1
# [4] = IC50 (μM ± Err), Hex A inhibition, values determined in Example 3, pH not given
# [5] = IC50 (μM), without error, pH not stated
# [6] = IC50 (μM ± Err), in brackets, brackets: IC50 extrapolated from an incomplete dose response curve
# [7] = IC50 (μM), compounds with bracketed IC50, extrapolated from an incomplete dose response curve
# [8] = read-out: IC50 (μM ± Err), Hex A inhibition, values determined in Example 3, pH not given
# Chain of Hex A (P06865 89-529): as the sequence (P06865 89-529) above
# Chain of Hex A (P07686 122-311 limits assumed): as the sequence (P07686 122-311 limits assumed) above
# Chain of Hex A (P07686 315-556 limits assumed): as the sequence (P07686 315-556 limits assumed) above
IC50 (Hex A; [6]),SMILES,Max Increase (mutant Hex A [1]),Range of Increase (mutant Hex A [1]),EC50 (mutant Hex A [1]),IC50 (Hex A; [4]),IC50 (Hex A; [5]),other results
,"CC1=N[C@@H]2[C@@H](O)[C@H](O)[C@@H](CO)O[C@@H]2S1 [NGT, NAG-thiazoline, reference compound]",,,,,,pKHA (Hex A): 4.5
,"CCc1nc(N)nc(N)c1-c1ccc(Cl)cc1 [PYR, Pyrimethamine, reference compound]",2.0,4,,,,"Max Increase (mutant Hex A [1]; listed as PYR (vsa7)): 1.4; pKHA (Hex A): 6.5; reduction of viability compared to PYRdCl treated patient fibroblasts (patient fibroblasts): more than 20%; cell toxicity (mutant Hex A [2]; 33.33 μg/ml, five days): cell death was occurring; rescue of mutant Hex A activity compared with NGT (mutant Hex A [2]; fibroblasts expressing αG269S, four days (FIG. 1)): better able to rescue mutant Hex A activity"
,CCc1nc(N)nc(N)c1-c1ccc(C(F)(F)F)cc1 [jts16],1.3,4,5.14 µM,18 ± 1 µM,17.7 µM,
,CC(C)c1nc(N)nc(N)c1-c1ccc(Cl)cc1 [jts20],,,,406 ± 2 µM,406 µM,
,Cc1nc(N)nc(N)c1-c1ccc(Cl)cc1 [jts22],,,,556 ± 1 µM,556 µM,
1230 µM,Cc1nc(N)nc(N)c1-c1ccccc1 [ksh3-05],,,,,,IC50 (Hex A; [7]): 1230 µM
,CCc1nc(N)nc(N)c1-c1ccccc1 [ksh3-10],2.6,4,38.4 µM,,,"fold increase in Hex A activity (rescue of mutant Hex A) (mutant Hex A [1]; concentration of 100 μM (FIGS. 6 and 7)): ~3 fold; IC50 (Hex A; [8]): 32 ± 1 µM; IC50 (Hex A; read-out: IC50 HexA pH 7, purified HexA, pH 7): 11 µM; IC50 (Hex A; without error, pH not stated): 32 µM; IC50 (HexA wt): 27 µM; intracellular hydrolysis of fluorescent GM2 ganglioside derivative (lysosomal HexA): greater intracellular hydrolysis; IC50 [3]: 0.2 µM; activity against malaria relative to PYR (malaria): inferior activity against malaria relative to PYR; fold increase in Hex A activity (mutant Hex A [2]; 33.33 μg/ml, five days, relative to untreated cells (FIG. 5)): 7 fold; Hex A rescue response compared with PYR (mutant Hex A [2]; all Tay-Sachs cell lines tested (FIG. 5)): as good or a better than PYR; IC50 (HexB; pH 4.5, 1.6 mM substrate, read-out: IC50 HexB pH 4.5): 38 µM; IC50 (HexB; pH 7, read-out: IC50 HexB pH 7): 15 µM"
923 µM,Cc1nc(N)nc(N)c1-c1ccc(F)cc1 [ksh3-14a],,,,,,IC50 (Hex A; [7]): 923 µM
1720 µM,Cc1ccc(-c2c(C)nc(N)nc2N)cc1 [ksh3-14b],,,,,,IC50 (Hex A; [7]): 1720 µM
3830 µM,Cc1ccc(-c2c(C)nc(N)nc2N)cc1 [ksh3-14c],,,,,,IC50 (Hex A; [7]): 3830 µM
10400 µM,Cc1cccc(-c2c(C)nc(N)nc2N)c1 [ksh3-14d],,,,,,
1230 µM,Cc1cc(C)cc(-c2c(C)nc(N)nc2N)c1 [ksh3-14e],,,,,,IC50 (Hex A; [7]): 1230 µM
,CCc1nc(N)nc(N)c1-c1ccc(F)cc1 [ksh3-17],1.8,4,8.24 µM,50 ± 1 µM,50.4 µM,
,CCc1nc(N)nc(N)c1-c1ccc(C)cc1 [ksh3-19b],1.5,4,4.44 µM,72 ± 2 µM,72.3 µM,
,CCc1nc(N)nc(N)c1-c1ccccc1C [ksh3-19c],1.9,4,4.95 µM,44 ± 1 µM,43.7 µM,
,CCc1nc(N)nc(N)c1-c1cccc(C)c1 [ksh3-19d],2.1,5,6.67 µM,,34.5 µM,IC50 (Hex A; [8]): 34 ± 1 µM
,CCc1nc(N)nc(N)c1-c1cc(C)cc(C)c1 [ksh3-19e],2.2,3,16.4 µM,,,"IC50 (Hex A; [8]): 47 ± 1 µM; IC50 (Hex A; without error, pH not stated): 47.4 µM"
,CCCc1nc(N)nc(N)c1-c1ccccc1 [ksh3-29],1.6,3,12.1 µM,37 ± 1 µM,36.6 µM,
,CCCc1nc(N)nc(N)c1-c1ccc(F)cc1 [ksh3-33a],1.4,4,12.5 µM,39 ± 1 µM,39.1 µM,

IC50 (Hex A; [6]),SMILES,Max Increase (mutant Hex A [1]),Range of Increase (mutant Hex A [1]),EC50 (mutant Hex A [1]),IC50 (Hex A; [4]),IC50 (Hex A; [5]),other results
825 µM,CCCc1nc(N)nc(N)c1-c1ccccc1C [ksh3-33c],,,,,,
,CCCc1nc(N)nc(N)c1-c1cccc(C)c1 [ksh3.33d],1.7,3,14.8 µM,50 ± 1 µM,50.4 µM,
,CCCc1nc(N)nc(N)c1-c1cc(C)cc(C)c1 [ksh3.33e],1.6,1,,24 ± 1 µM,24.4 µM,
2110 µM,CCc1ncncc1-c1ccc(C(F)(F)F)cc1 [vsa4],,,,,,
,CCc1nc(N)nc(N)c1-c1ccc(C(F)(F)F)cc1 [vsa5],1.4,3,2.24 µM,,14.7 µM,IC50 (Hex A; [8]): 15 ± 1 µM
936 µM,CCc1ncnc(N)c1-c1ccc(C(F)(F)F)cc1 [vsa6],,,,,,IC50 (Hex A; [7]): 936 µM
967 µM,CCC1=C(c2ccc(Cl)cc2)C(N)=NCN1 [vsa8],,,,,,IC50 (Hex A; [7]): 967 µM
400 µM,CCc1[nH]c(=O)nc(N)c1-c1ccc(Cl)cc1 [vsa9],,,,,,
1360 µM,CCCCc1nc(N)nc(N)c1-c1ccc(Cl)cc1 [zjm1-91],,,,,,IC50 (Hex A; [7]): 1360 µM
600 µM,CCCCc1nc(N)nc(N)c1-c1ccc(C)cc1 [zjm1-111],,,,,,IC50 (Hex A; [7]): 600 µM
870 µM,CCCCc1nc(N)nc(N)c1-c1ccc(OC)cc1 [zjm1-113],,,,,,IC50 (Hex A; [7]): 870 µM
,CCCCc1nc(N)nc(N)c1-c1ccc(C(F)(F)F)cc1 [zjm1-115],,,,142 ± 3 µM,142 µM,
,CCCc1nc(N)nc(N)c1-c1ccc(Cl)cc1 [zjm1-135],1.4,3,7.14 µM,,,"IC50 (Hex A; [8]): 18 ± 1 µM; IC50 (Hex A; without error, pH not stated): 17.9 µM"
,CCCc1nc(N)nc(N)c1-c1ccc(C)cc1 [zjm1-137],2.0,3,4.6 µM,28 ± 1 µM,28.4 µM,
,CCCc1nc(N)nc(N)c1-c1ccc(OC)cc1 [zjm1-139],2.3,4,14.2 µM,28 ± 1 µM,28.2 µM,
,CCCc1nc(N)nc(N)c1-c1ccc(C(F)(F)F)cc1 [zjm1-141],1.5,3,11.6 µM,16 ± 1 µM,15.9 µM,
,NCc1nc(N)nc(N)c1-c1ccc(Cl)cc1 [zjm7-27],1.4,1,,176 ± 1 µM,176 µM,
,CCc1nc(N)nc(N)c1-c1cccs1 [zjm7-67],1.7,2,6.46 µM,31 ± 1 µM,30.8 µM,
,CCc1nc(N)nc(N)c1-c1ccsc1 [zjm7-69],1.9,4,10 µM,55 ± 1 µM,55 µM,

# — patent US20150272951A1, “COMPOUNDS FOR THE TREATMENT OF LYSOSOMAL STORAGE DISEASES” (The Hospital for Sick Children, priority 2010, published 2015)
